The source of these data is US5652222A, “Selective inhibition of leukemic cell proliferation by bcr-abl antisense oligonucleotides” (Temple University-of The Commonwealth System of Higher …, priority 1993, dated 1997).

Data set [1] relates to CML blast crisis cells (L-6 type junction). Briefly: CFU-L colony formation of CML blast crisis cells (Example 3). The data set is classed as cell-based, human. An excerpt: (§1) Normal bone marrow mononuclear cells (MNC) were obtained by aspiration from consenting volunteers and enriched for hematopoietic progenitors as previously reported by numerous investigators (Zamecnick et al., Proc. Natl. Acad. Sci. U.S.A. 83, 4143-4147 (1986); Caracciolo et al., J. Clin. Invest. 85, 55-61 (1990)). In brief, marrow cells were subjected to Ficoll-Hypaque density gradient sedimentation and then depleted of adherent monocyte-macrophage and T-lymphocytes by adherence to plastic Petri dishes and rosetting with neuraminidase-treated sheep red blood cells, respectively. Philadelphia chromosome-positive blast cells were isolated by Ficoll-Hypaque density gradient sedimentation from a CML patient in blast crisis (L-6 type junction). […] The residual non-blast cells had the morphological appearance of small lymphocytes. 25,000 MNC and 25,000 CML blast cells were combined and incubated with bcr-abl breakpoint-Specific antisense oligomer (SEQ ID NO:3) (40 μg/ml at h 0; 20 μg/ml 18 hours later) or with a 4 nucleotide mismatch bcr-abl antisense oligomer (SEQ ID NO:2) (40 μg/ml at 0 h; 20 μg/ml 18 hours later) or left untreated. Four hours after the second addition of oligonucleotides to the cultures, cells were seeded into duplicate methylcellulose dishes containing IL-3 (20 U/ml) and GM-CSF (5 ng/ml) and allowed to grow for an additional 12 days. At the end of the incubation period colonies were counted.
The data is shown in Table 3, below, wherein values represent mean ± standard deviation of duplicate control cultures (no oligonucleotide added) and duplicate experimental cultures from two separate experiments. Colony forming unit-granulocyte macrophage (CFU-GM)-derived colonies consisted of 50 or more cell aggregates, while CFU-GM-derived clusters were defined as aggregates of between 4 and 40 cells. These are normal hematopoietic colonies derived from progenitors with the capability to differentiate along the granulocytic and macrophage lineages. […]

The test system of data set [2] is 1:1 mixtures of normal marrow progenitors and CML blast crisis cells. Briefly: CFU-GM + CFU-L colony formation of 1:1 mixtures of normal marrow progenitors and CML blast crisis cells. The data set is classed as cell-based, human. As to conditions: Table 3; 1:1 mixture; 40 μg/ml at 0 h, 20 μg/ml 18 h later; 12 days; mean ± SD; control 978 ± 24.
Text: as §1, with “Four hours after the second addition of oligonucleotides to the cultures, cells were seeded into duplicate methylcellulose dishes containing IL-3 (20 U/ml) and GM-CSF (5 ng/ml) and allowed to grow for an additional 12 days.” left out, “counted. […]” for “counted.”

Data set [3] has as its system bcr-abl (b2/a2) transcripts. Put plainly: RT-PCR of bcr-abl transcripts in tissues of leukemic SCID mice. The data set is classed as in vivo, SCID mice (human leukemic cells). On the procedure: According to a third assay, the extent of leukemic disease was assessed by chain RT-PCR to monitor the expression of b2/a2 transcripts (assay sensitivity=[…]) in total RNA isolated from bone marrow cells, splenocytes, peripheral blood leukocytes, liver, lung and brain tissues. Depending on the number of BV173 cells injected, various numbers of leukemic cells were detected by clonogenic assay and RT-PCR in murine tissues, 3 and 6 weeks after injection. A few days before the expected death of leukemic SCID mice, approximately 80, 65, and 10% cALLA-positive cells were detected in bone marrow cells, splenocytes and peripheral blood leukocytes, respectively.
(§2) To determine whether synthetic phosphorothioate oligodeoxynucleotides targeted against the bcr-abl junction of […] cells would modify the disease process in SCID mice. SCID mice were injected with 10^6 BV173 cells. The mice then received 1 mg of sense (ATCAATAAGG AAGCCCTTCAGCG, SEQ ID NO:34) or antisense ([…] ATTGAT, SEQ ID NO:29) b2/a2 bcr-abl phosphorothioate oligodeoxynucleotides (pyrogen leven <1 Eu/mg; 0.2 ml in Iscove modified Dulbecco medium in 5-10 seconds) intravenously for each of 9 consecutive days, beginning either 7 or 21 days after introducing 10^6 BV173 cells. Control mice received the diluent (iscove's modified Dulbecco medium) only. These time points approximate distinct disease stages in humans.
At 7 (+7) and 21 (+21) days after injecting SCID mice with 10^6 BV173 cells, single cell suspensions were prepared from various tissues. After lysing red cells with 0.83% NH4 Cl buffered with 0.17 mM Tris-HCl, pH 7.4, total RNA was extracted as described (Chomczynski and Sacchi, Anal. Biochem. 162, 156 (1987)) and the suspension was divided into two equal aliquots. Bcr-abl and β-actin transcripts were reverse-transcribed and amplified with specific primers and Taq polymerase as described by Szczylik et al., Science 253, 562 (1991). Amplification products were separated on a 2% agarose gel, transferred to a nitrocellulose filter and hybridized with a synthetic 40-base c-abl fragment or 20-base β-actinfragment end-labeled with [γ^32 -P]-ATP and polynucleotide kinase. The c-abl probe recognizes an amplified 257-bp sequence containing the bcr-abl junction: the β-actin probe recognizes a 209-bp fragment, contained within the 5' and 3' β-actin primers (Tokunaga et al., Nucleic Acids Res. 14, 2829 (1986)).

The test system of a further data set is BV173 cells. Briefly: Clonogenic assay of tissues of leukemic SCID mice. Format: in vivo, SCID mice (human leukemic cells). As to the method:
A second assay for leukemic disease comprised a clonogenic assay in semisolid medium. […] By contrast, BV173 cells formed numerous, rapidly growing colonies. To rule out the possibility that the presence of BV173 cells permitted the growth of murine progenitors, mixing experiments were carried out.
as §2
10^5 cells were plated in duplicate in 35×10 mm tissue culture dishes (Nunc, Inc., Naperville, Ill.) in HCC-4230 medium (Terry Fox Lab., Vancouver, Canada) supplemented with 2.5 mM L-glutamine, and allowed to grow for 12 days. Plates were scanned with an inverted microscope and total colony number was determined. The results are shown in FIG. 9 (C, untreated mouse; S, sense-treated mouse, AS, antisense-treated mouse).

Setting [4] is: 1 mg/day i.v. x9 from day +7, killed 26 days after last treatment (6 weeks).
The mark [5] stands for this setting: 1 mg/mouse/day x9 from day +21, 26 days after treatment (8 weeks).

Values joined by “and” are separate entries in the source; they are usually repeats but may differ in a detail not shown here. Equal values may be shown once.

As to “SEQ ID NO:3: synthetic 18-mer GAAGGGCTTC TTCCTTAT specific for the 18-nucleotide target sequence of the L-6 bcr-abl junction (antisense GAAGGGCTTCTTCCTTAT; chemistry not given here)”, the “Colonies or Clusters, CFU-L (colonies formed from CML blast crisis cells)” value in data set [1] (Table 3, 40 μg/ml at 0 h, 20 μg/ml 18 h later, 12 days, mean ± SD, control 806 ± 70) is 180 ± 14 colonies or clusters. The “number of colonies arising from the CML blast crisis cells (CFU-L)” value in data set [1] (after twelve days in culture) was “much lower than that arising in the presence of the mismatched bcr-abl oligomer”. Also, the “Colonies or Clusters, CFU-GM + CFU-L” value in data set [2] is recorded as 450 ± 42 colonies or clusters.

On to “SEQ ID NO:34: phosphorothioate sense sequence ATCAATAAGGAAGCCCTTCAGCG (23-mer b2a2 sense) (sense ATCAATAAGGAAGCCCTTCAGCG; all phosphorothioate, sugars by position and methylation of C not given here)”, for which the “bcr-abl transcripts in tissues” value in data set [3] (from day +7, 12 days after last treatment (4 weeks), blood, spleen, bone marrow, liver, lung, brain) is recorded as “bcr-abl transcripts in each of the tissues analyzed except brain”; in data set [3] (from day +21, 12 days after last treatment (6 weeks), blood, spleen, bone marrow, liver, lungs, brain), “Bcr-abl transcripts were detected”; in data set [3] (from day +21, 26 days after treatment (8 weeks)) it was “readily detectable”. Moreover, the “bcr-abl (b2/a2) transcripts in tissues” value in data set [3] (from day +7, 26 days after last treatment (6 weeks), blood leukocytes, spleen, bone marrow, liver, lung, brain) was “readily detected in each tissue”. The “leukemic colonies, bone marrow and spleen” value in the data set on BV173 cells (setting [4]) is given as “numerous leukemic colonies”. In the data set on BV173 cells (setting [4]), the “leukemic colonies, peripheral blood leukocytes” value is on record as “A few colonies”. The “leukemic colonies, bone marrow” value in the data set with BV173 cells (1 mg/mouse/day i.v. x9 from day +7, killed 12 days after last treatment (4 weeks), untreated 353±52) worked out at 380±25 colonies; in the data set with BV173 cells (1 mg/mouse/day x9 from day +21, 12 days after last treatment (6 weeks), untreated 575.5±83.8) it was 668.5±59.1 colonies; in the data set on BV173 cells (setting [5]), 839.5±41.7 colonies. Also, the “leukemic colonies, peripheral blood mononuclear cells” value in the data set on BV173 cells (1 mg/mouse/day x9 from day +21, 12 days after last treatment (6 weeks), untreated 11.0±8.5) is reported as 14.5±4.9 colonies. The “leukemic colonies, spleen” value in the data set with BV173 cells (1 mg/mouse/day x9 from day +21, 12 days after last treatment (6 weeks), untreated 80.5±12.0) was 116.0±29.7 colonies; in the data set on BV173 cells (setting [5]), 548.5±128.0 colonies. The “leukemic colonies, peripheral blood” value with BV173 cells (setting [5]) was 51.0±41.7 colonies and 51.0±14.1 colonies.
